According to publication PMC9437215, “Synthesis and antibacterial activity evaluation of N (7) position-modified balofloxacins” (Frontiers in Chemistry, 2022):
Converted amounts (≈) assume the structure as drawn. “Also recorded” adds a separate entry of the source. Where two headings read alike, the source gives them in different places.

What was measured:
MRSA [1] = test: MIC and MBC determinations in vitro, MRSA; assay type: cell-based; conditions: MRSA clinical isolate; for MIC: 24 h culture
Description: (§1) The three strains of MRSA, P. aeruginosa, and E. coli used in this experiment were from clinical isolates, which were provided by the People’s Liberation Army 304 Hospital.
(§2) To evaluate the antibacterial activities of newly synthesized N (7) position modified fluoroquinolones, the minimum inhibitory (MIC) and bactericidal (MBC) concentrations of these compounds toward bacteria were measured.

P. aeruginosa = test: MIC and MBC determinations in vitro, P. aeruginosa; assay type: cell-based; conditions: P. aeruginosa clinical isolate; for MIC: 24 h culture; for MBC: solid medium 24 h
Description: as §1, §2

E. coli = test: MIC and MBC determinations in vitro, E. coli; assay type: cell-based; conditions: Escherichia coli, E. coli clinical isolate
Description: as §1, §2

[2] = system: MRSA, P. aeruginosa, and E. coli; test: MIC and MBC values stated over the three strains together; assay type: cell-based; conditions: bound over MIC and MBC, converted to μmol/L; read-out: MIC and MBC
Description: as §1, §2

MRSA [3] = test: Time-dependent antibacterial effects in vitro; assay type: cell-based
Description: In order to further verify the antibacterial effect of the representative compound 2-e, time-dependent bactericidal activity of 2-e against MRSA was determined. This study referred to the reported methods ([Ling et al., 2015]). MRSA was cultured overnight in LB liquid and the bacterial solution at 10^9 CFU/ml tested on the machine was diluted at 1:10,000 with LB liquid medium and cultured at 37°C, 180 rpm. […] Time-dependent bacterial colonies were evaluated at 4 or 8 h intervals as follows: 100 μL of the mixture at the current time point was taken and centrifuged at 10,000 rpm for 2 min, and the pellet formed was dispersed with PBS, which was diluted by the ten-fold dilution method. 100 μL of bacterial dilution was evenly spread on LB solid medium at 37°C for 24 h. The colonies counted, according to national standards, accounted for the drug’s time-dependent antibacterial results. The same experimental operation was repeated three times independently.

Hemolytic activity = assay type: cell-based, rabbit; conditions: male, New Zealand white, rabbit, red cell suspension from rabbit blood; even at high concentrations (> 10^5 × MIC), 37°C, 24 h; read-out: hemolysis rate
Description: (§3) The animal experiment was approved by the Laboratory Animal Management Committee/Laboratory Animal Welfare Ethics Committee, Institute of Radiation Medicine, Chinese Academy of Medical Sciences (No. IRM-DWLL-2019153). Hemolysis anemia is one of the major adverse reactions of antibiotics. To assess the blood compatibility of N (7) position modified balofloxacin, the hemolytic activity of 2-e was tested. Fresh rabbit blood, obtained from the ear vein of a male New Zealand white rabbit, was diluted at a ratio of 1:20 in volume with PBS, centrifuged and resuspended in PBS at 1,000 rpm for 5 min to form an experimental red cell suspension. 500 μL drug 2-e solution and equal volumes of blood suspension were mixed in which the final drug concentration was 500, 250, 125, 62.5, 31.25, 15.62, 7.81, 3.91, 1.95, and 0.98 μg/ml, respectively, these mixtures were incubated at 37°C for 24 h. The positive control group was an equal volume of diluted blood cells mixed with an equal volume of 0.5% Triton X-100. The negative control group was mixed with an equal volume of PBS and diluted blood cells. After incubation, the mixture in a series of centrifuge tubes was centrifuged under the same conditions, and 200 μL of the supernatant was aspirated and transferred to a 96-well plate. The release of hemoglobin from the main contents was measured at A405nm using a microplate reader (Thermo, Varioskan Flash 3001, United States). Each data were from the triplicate experiments. The percentage of hemolysis in the hemolysis test was calculated according to the following formula: %Hemolysis=(A405 test sample−A405 negative control)/(A405 positive control−A405 negative control).

[4] = system: rabbit red cell suspension; test: Hemolytic activity; assay type: cell-based
Description: as §3

[5] = Cell viability assay (MTS), 3T3; assay type: cell-based; conditions: mouse, 3T3 cells; 3T3, 100 μmol/L, 48 h
Description: (§4) To investigate the biocompatibility of the synthesized balofloxacin derivative, the cytoxicity of 2-e on human normal cells (3T3, L-02) and tumor cells (BEL-7402, H520, A549, and MCF-7) was studied. As an experimental example human liver cells (L-02) growing in the log phase, were plated in the 96-well plate at a density of 5000 cells/well. The cells were cultured at 37°C for 24 h under 5% CO2 medium. Then different concentrations of 1e and 2-e were added, the L-02 cells were cultured at 37°C for 48 h under a 5% CO2 atmosphere. Then the medium was aspirated, 100 μL of serum-free medium and 20 μL of MTS were added into each well, and L-02 was incubated at 37°C for 1 h under a 5% CO2 atmosphere. After that, the absorbance of the solutions at 490 nm was obtained using a microplate reader and calculated cell survival rate according to the following formula: Cell survive rate(%)=(ODtest−ODblank)/(ODcontrol−ODblank)×100%.

3T3 = test: Cell viability assay (MTS), 3T3; assay type: cell-based; conditions: 3T3
Description: as §4

[6] = Cell viability assay (MTS), L-02; assay type: cell-based, human; conditions: human, L-02 cells (normal liver cells); L-02, 100 μmol/L, 48 h
Description: as §4

L-02 = test: Cell viability assay (MTS), L-02; assay type: cell-based, human; conditions: L-02
Description: as §4

[7] = Cell viability assay (MTS), BEL-7402; assay type: cell-based, human; conditions: human, BEL-7402 tumor cells; BEL-7402, 100 μmol/L, 48 h
Description: as §4

BEL-7402 = test: Cell viability assay (MTS), BEL-7402; assay type: cell-based, human; conditions: BEL-7402
Description: as §4

[8] = Cell viability assay (MTS), H520; assay type: cell-based, human; conditions: human, H520 tumor cells; H520, 100 μmol/L, 48 h
Description: as §4

H520 = test: Cell viability assay (MTS), H520; assay type: cell-based, human; conditions: H520
Description: as §4

[9] = Cell viability assay (MTS), A549; assay type: cell-based, human; conditions: human, A549 tumor cells; A549, 100 μmol/L, 48 h
Description: as §4

A549 = test: Cell viability assay (MTS), A549; assay type: cell-based, human; conditions: A549
Description: as §4

[10] = Cell viability assay (MTS), MCF-7; assay type: cell-based, human; conditions: human, MCF-7 tumor cells; MCF-7, 100 μmol/L, 48 h
Description: as §4

MCF-7 = test: Cell viability assay (MTS), MCF-7; assay type: cell-based, human; conditions: MCF-7
Description: as §4

MRSA cells = test: Cell wall damage monitored by atomic force microscopy (AFM); assay type: cell-based; conditions: 10 μM, 37°C, 30 min
Description: To observe the structural changes in the bacterial surface after the administration of balofloxacin derivative 2-e, atomic force microscope assay was performed. The bacterial suspension was diluted with LB liquid medium to 10^7 CFU/ml. The bacterial solution and the drug solution were mixed in an equal volume so that the concentration of 1e and 2-e was 10 μM in the final solution, respectively. And after mixing, it was incubated at 37°C for 30 min, together with the control group in the same way. After that, the sample was centrifuged at 9,000 rpm for 5 min and the supernatant was discarded, while the precipitate was washed twice with physiological saline in the same volume and centrifuged at 9,000 rpm for 5 min. Finally, the bacterial sample, prepared by dispersion in the same volume of physiological saline solution, was dropped onto the surface of the mica plate (about 0.5 cm^2), dried naturally at ambient temperature, and scanned by an atomic force microscope.

Which MIC (MRSA [1]) does the source give for `COc1c(N2CCCC(N(C)C(C)=O)C2)c(F)cc2c(=O)c(C(=O)O)cn(C3CC3)c12` (stereo not drawn) [Compound 2-e, 1-Cyclopropyl-6-fluoro-8-methoxy-7-(3-(N-methylacetamido)piperidin-1-yl)-4-oxo-1,4-dihydroquinoline-3-carboxylic acid] here?
The MIC was 0.0195 µg/mL (≈ 0.0452 µM).

And the MIC (MRSA [1]; Staphylococcus aureus, MRSA, 24 h, read-out: MIC)?
Its MIC is 0.0195 to 0.039 µg/mL (≈ 0.0452 to 0.0904 µM).

And the MBC (MRSA [1]; Staphylococcus aureus, MRSA, 24 h, solid medium 24 h, read-out: MBC)?
The MBC was 0.039 µg/mL (≈ 0.0904 µM).

And the MIC (P. aeruginosa)?
Its MIC is 0.039 µg/mL (≈ 0.0904 µM).

What about the MBC (P. aeruginosa) of the same compound?
The MBC was 0.078 µg/mL (≈ 0.181 µM).

And the MIC (P. aeruginosa; Pseudomonas aeruginosa, read-out: MIC)?
The MIC was 0.039 µg/mL (≈ 0.0904 µM).

What about the MBC (P. aeruginosa; Pseudomonas aeruginosa, read-out: MBC) of the same compound?
Its MBC is 0.078 µg/mL (≈ 0.181 µM).

What about the MIC (E. coli; 24 h culture) of the same compound?
Its MIC is 2.5 µg/mL (≈ 5.79 µM).

What about the MBC (E. coli; solid medium 24 h) of the same compound?
The MBC was 5 µg/mL (≈ 11.6 µM).

What about the MBC [2] of the same compound?
The MBC was less than 12 µM.

And the “antibacterial activity in early and late stages of the exponential growth phase” value (MRSA [3]; 10 × MIC, MRSA)?
The value was “good antibacterial activity”.

And the “time-dependent antibacterial effect, early logarithmic growth phase” value (MRSA [3]; MRSA)?
The value was “bactericidal effects occurred”.

What about the “time-dependent antibacterial effect, late logarithmic growth phase” value (MRSA [3]; MRSA) of the same compound?
The value was “bacterial inhibition occurred”.

What about the “log10 CFU after the first 8 h” value (MRSA [3]; early exponential phase, start log10 CFU 5.5, 10 × MIC) of the same compound?
Its value is 0.

What about the hemolysis at 24 h (Hemolytic activity) of the same compound?
Its hemolysis at 24 h is no more than 5%.

What about the “hemolytic activity” value [4] of the same compound?
The value was “not hemolytic”.

What about the viability at 48 h, 100 μmol/L [5] of the same compound?
Its viability at 48 h, 100 μmol/L is no less than 80%.

What about the “toxicity toward cell line” value (3T3) of the same compound?
The value was “low toxicity”.

And the viability at 48 h, 100 μmol/L [6]?
Its viability at 48 h, 100 μmol/L is no less than 80%.

And the “toxicity toward cell line” value (L-02)?
Its value is “low toxicity; also recorded: did not show toxicity”.

And the viability at 48 h, 100 μmol/L [7]?
Its viability at 48 h, 100 μmol/L is no less than 80%.

What about the “toxicity toward cell line” value (BEL-7402) of the same compound?
Its value is “low toxicity”.

And the viability at 48 h, 100 μmol/L [8]?
Its viability at 48 h, 100 μmol/L is no less than 80%.

And the “toxicity toward cell line” value (H520)?
The value was “low toxicity”.

What about the viability at 48 h, 100 μmol/L [9] of the same compound?
The viability at 48 h, 100 μmol/L was no less than 80%.

And the “toxicity toward cell line” value (A549)?
The value was “low toxicity”.

And the viability at 48 h, 100 μmol/L [10]?
Its viability at 48 h, 100 μmol/L is no less than 80%.

And the “toxicity toward cell line” value (MCF-7)?
Its value is “low toxicity”.

What about the “structural change of MRSA cells in AFM image” value (MRSA cells) of the same compound?
Its value is “could effectively destroy the membrane and wall of MRSA cells; also recorded: complete discharge of their contents and substantial fragmentation”.

What about the melting point of the same compound?
Its melting point is 201.6 to 202.3 °C.
